Columns and labels:
Caspase 1 [1] = target: T1, Caspase 1 (Homo sapiens, UniProt P29466); experiment: Ex vivo stimulation: active caspase-1 in CD4 T (T-helper) cells after whole blood incubation with caspase inhibitors (Example 9); type: cell-based; conditions: inhibitor 24 hrs, then with or without nigericin; for T-helper cell caspase-1 expression: COVID-19 whole blood samples
T1 construct: A Fam-FLICA probe specific for Caspase 1 was directly added to 50 μl PBMC; endogenous in cells; host or cells: PBMC (CD3-, CD3+, CD3+CD4+ lymphocytes) purified from human whole blood
T1 sequence (P29466 120-297 limits assumed): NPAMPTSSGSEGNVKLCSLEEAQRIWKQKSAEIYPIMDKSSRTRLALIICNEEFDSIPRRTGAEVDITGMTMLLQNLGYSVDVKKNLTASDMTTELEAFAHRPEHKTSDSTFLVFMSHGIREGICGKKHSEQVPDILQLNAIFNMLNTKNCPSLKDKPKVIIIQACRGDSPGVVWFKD
T1 sequence (P29466 317-404 limits assumed): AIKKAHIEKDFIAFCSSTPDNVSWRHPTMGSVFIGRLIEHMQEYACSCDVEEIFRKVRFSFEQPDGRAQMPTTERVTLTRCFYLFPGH
Method: Apoptosis and pyroptosis were measured by flow cytometry using fluorescent-labeled inhibitors of caspase probe assay (FLICA; Immunochemistry Technologies, Minneapolis, MN). As a control, PBMCs were stimulated with nigericin for 2 hours. FAM-FLICA probes specific for caspase-1 was added to 50 μl PBMC and incubated for 1h at 37° C. Cells were subsequently washed and stained for CD45 PE-CY7 [HI30], CD3 AF700 [UCHT1], CD4 PE [RPA-T4], CD45RO PerCP-EF710 [UCHL1], and Viability Dye 780 (Thermo Fisher Scientific, Carlsbad, CA). Samples were acquired on a 3 laser BD FACS Canto 10. CS&T beads (BD Bioscience, San Jose, CA) were acquired daily to ensure consistent performance of the Canto10. The CANTO10 utilized for this study was validated for T, B, NK, and dendritic cell immunophenotyping clinical diagnostic testing. Denovo FCS Express v6 clinical edition (De Novo Software, Pasadena, CA) was used for flow cytometric analyses.
Active caspase-1 in COVID-19+ patient samples. Whole blood from a COVID-19 positive patient was either (A) untreated or (B) treated with emricasan (1 μM, Sigma Aldrich, MO, SML2227-5MG) or selective caspase-1 inhibitor VX765 overnight at 37° C. in a water bath. Subsequently, PBMCs were purified (Accuspin System—Histopaque 1077; Sigma Aldrich, MO, A6929) and incubated with nigericin (Immunochemistry Technologies, MN) for 2h. A Fam-FLICA probe specific for active caspase-1 was added to 50 μl PBMC and then incubated for 1h at 37° C. PMBCs were washed with cell wash buffer (Immunochemistry Technologies, MN) and stained with CD45 PE-CY7 [H130], CD3 AF700 [UCHT1], CD4 PE [RPA-T4], CD45RO PerCP-EF710 [UCHL1], and Viability Dye 780 (Thermo Fisher Scientific, Carlsbad, CA). Lymphocytes were identified using a standard gating schematic that incorporated gating of lymphocytes on an FSC/SSC plot and singlets on a FSC-A/FSC-H plot. Lymphocytes were further identified as CD45+ on a CD45/SSC plot and subsequent CD3−, CD3+ and CD3+CD4+ cells were identified on a CD45+ CD3/CD4 plot. Shown are the active caspase-1 MFI and % positive for the three cellular populations indicated. […]

Caspase 1 [2] = target: T1, Caspase 1; experiment: Active caspase-1 by FAM-FLICA flow cytometry in PBMCs from Emricasan-treated COVID-19(+) whole blood (Example 7); type: cell-based; conditions: 1 μM
Method: Whole blood from COVID-19(+) patients was incubated either (A) without addition of Emricasan (Untreated) or (B) with Emricasan (Sigma Aldrich, MO, SML2227-5MG), 1 μM final concentration for 3.5 hours at room temperature (Treated). Following incubation with or without Emricasan, PBMCs were purified using an Accuspin System—Histopaque 1077 (Sigma Aldrich, MO, A6929) as per the manufacturer's instructions. Purified Treated and Untreated PBMCs were incubated with nigericin (Immunochemistry Technologies, MN) as per the manufacturer's instructions for 2 hours. A Fam-FLICA probe specific for Caspase 1 was directly added to 50 μl PBMC and then incubated for 1 hour at 37° C. PMBCs were washed with cell wash buffer (Immunochemistry Technologies, MN) to remove unbound FLICA probes. Washed PBMCs were FACS-sorted using CD45 PE-CY7 [H130], CD3 AF700 [UCHT1], CD4 PE [RPA-T4], CD45RO PerCP-EF710 [UCHL], and Viability Dye 780 (Thermo Fisher Scientific, Carlsbad, CA) to identify viable CD3−cells as well as CD3+ cells and CD3+ CD4+ T cells. Lymphocytes were identified using a standard gating schematic that incorporated gating of lymphocytes on a FSC/SSC plot and singlets on a FSC-A/FSC-H plot. Lymphocytes were further identified as CD45+ on a CD45/SSC plot and subsequent CD3−, CD3+, and CD3+ CD4+ cells were identified on a CD45+ CD3/CD4 plot.
In another experiment, whole blood was incubated with 1 μM Emricasan for 17 hours (overnight between 5 PM to 10 AM) at room temperature on a rocker. The same experiment described above to examine active caspase 1 in PBMCs was performed.

[3] = system: red blood cell (RBC) layer in the PBMC layer ("red ring"); type: cell-based, human; conditions: PBMCs from COVID-19 patient samples, 1 micromolar, room temperature, 17 hours
caspase-3 = target: T2, caspase-3 (Homo sapiens, UniProt P42574); experiment: Caspase-3 in RBCs incubated with patient plasma (Example 9); type: cell-based
T2 construct: EMR suppressed the caspase-3 up-regulation in the COVID-19 plasma incubated samples; endogenous in cells; host or cells: human red blood cells (healthy subjects' RBCs incubated with patient plasma)
T2 sequence (P42574 29-277): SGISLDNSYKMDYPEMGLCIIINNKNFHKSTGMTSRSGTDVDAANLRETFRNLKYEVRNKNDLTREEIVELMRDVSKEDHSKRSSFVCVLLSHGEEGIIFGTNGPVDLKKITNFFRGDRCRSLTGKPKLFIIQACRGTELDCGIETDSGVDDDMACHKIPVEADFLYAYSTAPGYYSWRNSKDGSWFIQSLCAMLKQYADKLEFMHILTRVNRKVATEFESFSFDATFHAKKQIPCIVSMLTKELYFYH
Method: Plasma was separated from whole blood following centrifugation at 960 RCF. Cells (RBC and WBC) were either incubated at 37° C. alone or in the presence of trypsin for 1 hour then washed with 10 packed cell volumes of RPMI 1640 incomplete medium. Plasma was either held at room temperature (18-25° C.) or heat inactivated at 56° C. for 1 hr. Plasma was added back to the RBC/WBC in a 1:1 ratio and incubated overnight, rocking at room temperature.
Cellular caspases are not limited to immune cells. […] In the process of Ficoll separation, a layer of RBCs contaminating the PBMC layer was observed, which layer was universally present in all samples from COVID-19 individuals (FIG. 6A). This finding was also present in up to 80% of COVID-19 convalescent subjects. Plasma from acutely infected subjects induced a similar finding when incubated overnight with plasma depleted whole blood of healthy patients.

[4] = COVID-19(+) whole blood, 3.5 hours, room temperature, nigericin 2 hours, CD3-, CD3+, CD3+CD4+ cells, vs untreated, p≤0.005

| SMILES | T-helper cell caspase-1 expression (Caspase 1 [1]) | active caspase-1 % positive cells (Caspase 1 [2]; [4]) | active caspase-1 MFI (Caspase 1 [2]; [4]) | inhibition of nigericin-induced Caspase-1 activity (Caspase 1 [2]; whole blood, 17 hours (overnight), room temperature on a rocker, 3 samples from COVID-19 patients) | "red ring" (RBC layer contaminating PBMCs) [3] | RBC caspase-3 up-regulation (caspase-3; healthy subjects' RBCs incubated with COVID-19 plasma) | RBC caspase-3 baseline expression levels (caspase-3; influenza-plasma incubated samples) | T-helper cell caspase-1 upregulation (Caspase 1 [1]; healthy subjects' whole blood) |
| --- | --- | --- | --- | --- | --- | --- | --- | --- |
| CCO[C@@H]1OC(=O)C[C@@H]1NC(=O)[C@@H]1CCCN1C(=O)[C@@H](NC(=O)c1ccc(N)c(Cl)c1)C(C)(C)C [VX765, Belnacasan] | did not show a strong similar suppressive effect |  |  |  |  |  |  |  |
| C[C@H](NC(=O)C(=O)Nc1ccccc1C(C)(C)C)C(=O)N[C@@H](CC(=O)O)C(=O)COc1c(F)c(F)cc(F)c1F [Emricasan, (3S)-3-{[(2S)-2-{[2-(2-tert-butylanilino)-2-oxoacetyl]amino}propanoyl]amino}-4-oxo-5-(2,3,5,6-tetrafluorophenoxy)pentanoic acid] | suppressed | significant reduction | significant reduction | seen in only ⅓ sample | decrease | suppressed | did not change | prevented its upregulation |
